Measured values: patent US20100298141A1, “SUBSTITUTED PYRIDINE N-OXIDE HERBICIDES” (E. I. DU PONT DE NEMOURS AND COMPANY, priority 2007, published 2010)

How the values were obtained:
velvetleaf [1] = assay: Test A pre-/postemergence greenhouse test; assay type: in vivo, Abutilon theophrasti; conditions: for Velvetleaf plant response rating: 0 to 100 scale
In short: (§1)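 Untreated controls served as the reference for visual injury ratings taken about ten days after spraying. The non-phytotoxic solvent/surfactant formulation was applied preemergence to seeded loam and sand and postemergence to plants two to ten cm high.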

giant foxtail = assay: Test A pre-/postemergence greenhouse test; assay type: in vivo, Setaria faberi; conditions: for Foxtail, Giant plant response rating: 0 to 100 scale
In short: as §1

downy brome = assay: Test C pre-/postemergence test; assay type: in vivo, Bromus tectorum; conditions: for Plant response rating, Bromegrass, Downy: scale 0 to 100, 0 no effect, 100 complete control
In short: (§2)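 Compounds in a non-phytotoxic solvent with surfactant applied preemergence to seeded pots and, at the same time, postemergence to plants 2–18 cm tall (1- to 4-leaf stage). Paddy tests: pots flooded to 3 cm, compound applied into the water, depth held throughout.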

lambsquarters = assay: Test C pre-/postemergence test; assay type: in vivo, Chenopodium album; conditions: for Plant response rating, Lambsquarters: scale 0 to 100, 0 no effect, 100 complete control
In short: as §2

catchweed bedstraw = assay: Test C pre-/postemergence test; assay type: in vivo, Galium aparine
In short: as §2

soybean = assay: Test C pre-/postemergence test; assay type: in vivo, Glycine max; conditions: for Plant response rating, Soybean: scale 0 to 100, 0 no effect, 100 complete control
In short: as §2

common ragweed = assay: Test C pre-/postemergence test; assay type: in vivo, Ambrosia elation; conditions: for Plant response rating, Ragweed: scale 0 to 100, 0 no effect, 100 complete control
In short: as §2

blackgrass = assay: Test C pre-/postemergence test; assay type: in vivo, Alopecurus myosuroides; conditions: for Plant response rating, Blackgrass: scale 0 to 100, 0 no effect, 100 complete control
In short: as §2

green foxtail = assay: Test C pre-/postemergence test; assay type: in vivo, Setaria viridis; conditions: for Plant response rating, Foxtail, Green: scale 0 to 100, 0 no effect, 100 complete control
In short: as §2

barnyardgrass [2] = assay: Test C flooded paddy test; assay type: in vivo, Echinochloa crus-galli; conditions: Flood
In short: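 Ratings were visual and made relative to untreated controls after 13 to 15 greenhouse days.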

barnyardgrass [3] = assay: Test A pre-/postemergence greenhouse test; assay type: in vivo, Echinochloa crus-galli; conditions: for Barnyardgrass plant response rating: 0 to 100 scale
In short: as §1

velvetleaf [4] = assay: Test C pre-/postemergence test; assay type: in vivo, Abutilon theophrasti; conditions: Postemergence; for Plant response rating, Velvetleaf: scale 0 to 100, 0 no effect, 100 complete control
In short: as §2

crabgrass = assay: Test A pre-/postemergence greenhouse test; assay type: in vivo, Digitaria sanguinalis; conditions: for Crabgrass, Large plant response rating: 0 to 100 scale
In short: as §1

Surinam grass = assay: Test C pre-/postemergence test; assay type: in vivo, Brachiaria decumbens; conditions: for Surinam Grass plant response rating: preemergence, scale 0 (no effect) to 100 (complete control); for Plant response rating, Surinam Grass: scale 0 to 100, 0 no effect, 100 complete control
In short: as §2

pigweed = assay: Test C pre-/postemergence test; assay type: in vivo, Amaranthus retroflexus; conditions: for Plant response rating, Pigweed: scale 0 to 100, 0 no effect, 100 complete control
In short: as §2

woolly cupgrass = assay: Test C pre-/postemergence test; assay type: in vivo, Eriochloa villosa; conditions: for Plant response rating, Cupgrass, Woolly: scale 0 to 100, 0 no effect, 100 complete control
In short: as §2

[5] = Postemergence, 125 g ai/ha, 0 is no effect, 100 is complete control
[6] = Postemergence, 500 g ai/ha, 0 is no effect, 100 is complete control
[7] = Preemergence, 125 g ai/ha, 0 no effect, 100 complete control
[8] = Preemergence, 500 g ai/ha, 0 to 100 scale where 0 is no effect and 100 is complete control
[9] = 31 g ai/ha, Preemergence, scale 0 to 100
[10] = 62 g ai/ha, preemergence, scale 0 (no effect) to 100 (complete control)
[11] = preemergence, 125 g ai/ha, scale 0 (no effect) to 100 (complete control)

Cn1nc(C(F)(F)F)c(C[S+]([O-])c2cccc[n+]2[O-])c1OC(F)F (stereo not drawn) [Compound 3]
60: Bromegrass, Downy plant response rating (downy brome; [10]) | Plant response rating (0 to 100), Soybean (soybean; Postemergence, 62 g ai/ha) | Plant response rating, Velvetleaf (velvetleaf [4]; 125 g ai/ha) | Plant response rating, Pigweed (pigweed; Postemergence, 250 g ai/ha) | Cupgrass, Woolly plant response rating (woolly cupgrass; [9]) | Cupgrass, Woolly plant response rating (woolly cupgrass; [10])
95: Galium plant response rating (catchweed bedstraw; [11]) | Plant response rating (0 to 100), Soybean (soybean; Preemergence, 250 g ai/ha) | Soybean plant response rating (soybean; [11])
100: Foxtail, Giant plant response rating (giant foxtail; [7]) | Plant response rating, Foxtail, Giant (giant foxtail; [8]) | Plant response rating (0 to 100), Bromegrass, Downy (downy brome; Preemergence, 250 g ai/ha) | Lambsquarters plant response rating (lambsquarters; [10]) | Plant response rating (0 to 100), Lambsquarters (lambsquarters; Preemergence, 250 g ai/ha) | Lambsquarters plant response rating (lambsquarters; [11]) | Plant response rating (0 to 100), Galium (catchweed bedstraw; Preemergence, 250 g ai/ha) | Ragweed plant response rating (common ragweed; [9]) | Ragweed plant response rating (common ragweed; [10]) | Plant response rating (0 to 100), Ragweed (common ragweed; Preemergence, 250 g ai/ha) | Ragweed plant response rating (common ragweed; [11]) | Plant response rating (0 to 100), Blackgrass (blackgrass; Preemergence, 250 g ai/ha) | Blackgrass plant response rating (blackgrass; [11]) | Plant response rating (0 to 100), Foxtail, Green (green foxtail; Preemergence, 250 g ai/ha) | Plant response rating, Barnyardgrass (barnyardgrass [3]; [8]) | Plant response rating, Crabgrass, Large (crabgrass; [8]) | Surinam Grass plant response rating (Surinam grass; 62 g ai/ha) | Plant response rating (0 to 100), Surinam Grass (Surinam grass; Preemergence, 250 g ai/ha) | Surinam Grass plant response rating (Surinam grass; 125 g ai/ha) | Pigweed plant response rating (pigweed; [10]) | Plant response rating (0 to 100), Pigweed (pigweed; Preemergence, 250 g ai/ha) | Pigweed plant response rating (pigweed; [11]) | Plant response rating (0 to 100), Cupgrass, Woolly (woolly cupgrass; Preemergence, 250 g ai/ha)
85: Plant response rating, Soybean (soybean; Postemergence, 250 g ai/ha) | Foxtail, Green plant response rating (green foxtail; [10]) | Plant response rating, Barnyardgrass (barnyardgrass [2]; 250 g ai/ha, scale 0 to 100 (0 no effect, 100 complete control)) | Cupgrass, Woolly plant response rating (woolly cupgrass; [11])
70: Velvetleaf plant response rating (velvetleaf [1]; [7]) | Plant response rating, Soybean (soybean; Postemergence, 125 g ai/ha) | Blackgrass plant response rating (blackgrass; [9]) | Blackgrass plant response rating (blackgrass; [10])
55: Plant response rating, Foxtail, Green (green foxtail; Postemergence, 250 g ai/ha) | Plant response rating, Surinam Grass (Surinam grass; Postemergence, 250 g ai/ha)
75: Foxtail, Green plant response rating (green foxtail; [9]) | Plant response rating, Barnyardgrass (barnyardgrass [2]; 125 g ai/ha, scale 0 to 100, 0 no effect, 100 complete control, 13 to 15 days) | Pigweed plant response rating (pigweed; [9])
15: Plant response rating, Lambsquarters (lambsquarters; Postemergence, 62 g ai/ha)
40: Plant response rating (0 to 100), Soybean (soybean; Postemergence, 31 g ai/ha) | Plant response rating, Cupgrass, Woolly (woolly cupgrass; Postemergence, 250 g ai/ha)
10: Plant response rating (0 to 100), Lambsquarters (lambsquarters; Postemergence, 31 g ai/ha) | Plant response rating, Foxtail, Green (green foxtail; Postemergence, 125 g ai/ha) | Plant response rating (0 to 100), Velvetleaf (velvetleaf [4]; 31 g ai/ha) | Plant response rating (0 to 100), Velvetleaf (velvetleaf [4]; 62 g ai/ha) | Plant response rating, Pigweed (pigweed; Postemergence, 125 g ai/ha)
20: Plant response rating, Lambsquarters (lambsquarters; Postemergence, 125 g ai/ha) | Plant response rating, Lambsquarters (lambsquarters; Postemergence, 250 g ai/ha) | Plant response rating, Blackgrass (blackgrass; Postemergence, 250 g ai/ha) | Plant response rating, Cupgrass, Woolly (woolly cupgrass; Postemergence, 125 g ai/ha)
80: Foxtail, Giant plant response rating (giant foxtail; [5]) | Barnyardgrass plant response rating (barnyardgrass [3]; [5]) | Barnyardgrass plant response rating (barnyardgrass [3]; [7]) | Crabgrass, Large plant response rating (crabgrass; [5])
90: Velvetleaf plant response rating (velvetleaf [1]; [6]) | Plant response rating, Velvetleaf (velvetleaf [1]; [8]) | Foxtail, Giant plant response rating (giant foxtail; [6]) | Barnyardgrass plant response rating (barnyardgrass [3]; [6]) | Crabgrass, Large plant response rating (crabgrass; [6]) | Crabgrass, Large plant response rating (crabgrass; [7])
30: Soybean plant response rating (soybean; [10])
50: Velvetleaf plant response rating (velvetleaf [1]; [5]) | Plant response rating, Ragweed (common ragweed; Postemergence, 125 g ai/ha) | Plant response rating, Ragweed (common ragweed; Postemergence, 250 g ai/ha) | Plant response rating, Barnyardgrass (barnyardgrass [2]; 62 g ai/ha, scale 0 to 100, 0 no effect, 100 complete control, 13 to 15 days) | Plant response rating, Surinam Grass (Surinam grass; Postemergence, 125 g ai/ha)
65: Plant response rating, Velvetleaf (velvetleaf [4]; 250 g ai/ha)
0: Bromegrass, Downy plant response rating (downy brome; [9]) | Plant response rating (0 to 100), Bromegrass, Downy (downy brome; Postemergence, 31 g ai/ha) | Plant response rating, Bromegrass, Downy (downy brome; Postemergence, 62 g ai/ha) | Plant response rating, Bromegrass, Downy (downy brome; Postemergence, 125 g ai/ha) | Plant response rating, Bromegrass, Downy (downy brome; Postemergence, 250 g ai/ha) | Galium plant response rating (catchweed bedstraw; [9]) | Galium plant response rating (catchweed bedstraw; [10]) | Plant response rating (0 to 100), Blackgrass (blackgrass; Postemergence, 31 g ai/ha) | Plant response rating, Blackgrass (blackgrass; Postemergence, 62 g ai/ha) | Plant response rating, Blackgrass (blackgrass; Postemergence, 125 g ai/ha) | Plant response rating (0 to 100), Foxtail, Green (green foxtail; Postemergence, 31 g ai/ha) | Plant response rating, Foxtail, Green (green foxtail; Postemergence, 62 g ai/ha) | Plant response rating, Barnyardgrass (barnyardgrass [2]; 31 g ai/ha, scale 0 to 100 (0 no effect, 100 complete control)) | Plant response rating (0 to 100), Surinam Grass (Surinam grass; Postemergence, 31 g ai/ha) | Plant response rating (0 to 100), Surinam Grass (Surinam grass; Postemergence, 62 g ai/ha) | Plant response rating (0 to 100), Pigweed (pigweed; Postemergence, 31 g ai/ha) | Plant response rating (0 to 100), Pigweed (pigweed; Postemergence, 62 g ai/ha) | Plant response rating (0 to 100), Cupgrass, Woolly (woolly cupgrass; Postemergence, 31 g ai/ha) | Plant response rating, Cupgrass, Woolly (woolly cupgrass; Postemergence, 62 g ai/ha)
5: Soybean plant response rating (soybean; [9]) | Plant response rating (0 to 100), Ragweed (common ragweed; Postemergence, 31 g ai/ha) | Plant response rating (0 to 100), Ragweed (common ragweed; Postemergence, 62 g ai/ha)
98: Bromegrass, Downy plant response rating (downy brome; [11]) | Lambsquarters plant response rating (lambsquarters; [9]) | Foxtail, Green plant response rating (green foxtail; [11])
